Results published in patent US20170044208A1, “SELECTIVE GLUCOCORTICOID RECEPTOR LIGANDS” (The University of Manchester, priority 2013, published 2017).
Like-named read-outs stand apart in the source and are kept apart here.

Tests used:
[1] = molecular target: T1, Glucocorticoid Receptor (GR) (Homo sapiens, UniProt P04150); experiment: Transactivation assay (MMTV-Luc reporter in HeLa cells); assay type: cell-based; settings: for Emax / EC50: HeLa; for Emax: 16 h, read-out: TA Max %; for EC50: concentration for half-maximal transactivation, MMTV-Luc, 16 hours, mean, read-out: TA EC50; for TA %: comparison table, against maximal activation seen with dexamethasone
T1 construct: Cells were transfected the next day with MMTV-Luc (5 μg) and pGL4-hRLuc (0.1 μg); endogenous in cells; host or cells: HeLa
T1 sequence (P04150 1-777): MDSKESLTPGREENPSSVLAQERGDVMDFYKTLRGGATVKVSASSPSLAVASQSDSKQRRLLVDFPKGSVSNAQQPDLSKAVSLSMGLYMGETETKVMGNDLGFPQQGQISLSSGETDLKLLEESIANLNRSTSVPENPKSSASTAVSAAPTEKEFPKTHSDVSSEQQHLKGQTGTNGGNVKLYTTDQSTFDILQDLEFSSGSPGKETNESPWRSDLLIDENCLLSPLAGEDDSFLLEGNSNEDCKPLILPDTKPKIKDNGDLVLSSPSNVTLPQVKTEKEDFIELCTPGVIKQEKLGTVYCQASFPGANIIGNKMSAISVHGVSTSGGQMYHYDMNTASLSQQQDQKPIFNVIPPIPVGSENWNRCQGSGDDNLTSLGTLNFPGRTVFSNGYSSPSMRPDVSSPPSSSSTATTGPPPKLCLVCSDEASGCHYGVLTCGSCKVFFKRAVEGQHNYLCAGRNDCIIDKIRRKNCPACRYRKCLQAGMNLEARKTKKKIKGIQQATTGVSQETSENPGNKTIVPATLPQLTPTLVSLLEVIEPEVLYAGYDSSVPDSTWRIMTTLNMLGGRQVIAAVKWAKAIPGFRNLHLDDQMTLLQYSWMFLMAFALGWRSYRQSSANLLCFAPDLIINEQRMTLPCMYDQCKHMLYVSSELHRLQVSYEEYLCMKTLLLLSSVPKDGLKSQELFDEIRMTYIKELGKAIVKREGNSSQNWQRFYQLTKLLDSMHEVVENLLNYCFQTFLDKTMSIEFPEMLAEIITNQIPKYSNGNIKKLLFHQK
Experimental: (§1) HeLa cells were seeded at 80×10^4 cells/dish in 100 mm dishes. Cells were transfected the next day with MMTV-Luc (5 μg) and pGL4-hRLuc (0.1 μg), in 250 μL of Opti-MEM I using FuGENE HD (15 μL). After 24 hours, cells were trypsinized and seeded into 96-well plates at a density of 8-10×10^4 cells/mL.
Following overnight incubation to allow attachment, cells were treated with the required concentration of compounds, then further incubated for 16 hours. Media was aspirated and cells lysed in 40 μL of 1×PLB.
(§2) Firefly and Renilla luciferase activity was measured using the Dual Luciferase Reporter system following the manufacturer's protocol.
(§3) IC50 and EC50 values were calculated by using GraphPad Prism 5.0. Briefly, luminescence values for luciferase were normalised using the Renilla luminescence values. The normalised values were input into GraphPad Prism 5.0. Non-linear regression analysis was carried out using the “log(concentration) vs. response” equation of the software, with a Hill slope coefficient fixed at 1.
(§4) IC50 and EC50 values are mean values in nM of all IC50/EC50 values for the compound. Max % values are mean values of the Max% activity.

NFkB = experiment: Transrepression assay (NFκB-LUC reporter in HeLa cells, TNF stimulated); assay type: cell-based; settings: for Emax / IC50: Homo sapiens, HeLa; for Emax: 16 h, read-out: TR Max %; for TR %: maximal NFkB repression compared to Dexamethasone
Experimental: as §1, with “NFκB-LUC reporter” for “MMTV-Luc”, “0.25 mL” for “250 μL”, “in to 24-well” for “into 96-well”, “cells/mL. Following overnight incubation, cells were starved for a further 24 hours in DMEM.” for “cells/mL.”
On the day of the experiment, compounds were added to cells one hour prior to the addition of […] (0.5 ng/mL). After a further 16 hours, cells were washed twice with ice-cold PBS, then lysed with 100 μL of 1×PLB.
as §2, §3, §4

[2] = concentration for half-maximal repression of NFkB, TNF 0.5 ng/mL, 16 hours, mean, read-out: TR IC50
[3] = comparison table, half-maximal repression of NFkB, multiple experiments, read-out: IC50

COc1cccc(C(=O)Nc2nc([C@@]3(O)[C@H](C)C[C@H]4[C@@H]5CCC6=CC(=O)C=C[C@]6(C)[C@@]5(F)[C@@H](O)C[C@@]43C)cs2)c1 [Compound 29]
Emax [1]: 0.67%
EC50 [1]: 19.4 µM
Emax (NFkB): 44.2%
IC50 (NFkB; [2]): 0.00796 µM

C[C@@H]1C[C@H]2[C@@H]3CCC4=CC(=O)C=C[C@]4(C)[C@@]3(F)[C@@H](O)C[C@]2(C)[C@@]1(O)c1csc(NC(=O)c2ccc3ncsc3c2)n1 [Compound 39]
Emax [1]: 0.96%
EC50 [1]: 1.16 µM
Emax (NFkB): 19%
IC50 (NFkB; [2]): 0.00834 µM

C[C@@H]1C[C@H]2[C@@H]3CCC4=CC(=O)C=C[C@]4(C)[C@@]3(F)[C@@H](O)C[C@]2(C)[C@@]1(O)c1csc(NC(=O)c2ncco2)n1 [Compound 33]
Emax [1]: 0%
Emax (NFkB): 32.7%
IC50 (NFkB; [2]): 0.0669 µM

COc1ccc(OCCNC(=O)[C@@]2(O)[C@H](C)C[C@H]3[C@@H]4CCC5=CC(=O)C=C[C@]5(C)[C@@]4(F)[C@@H](O)C[C@@]32C)cc1 [Compound 7]
Emax [1]: 44%
TA % [1]: 44%
EC50 [1]: 0.294 µM
Emax (NFkB): 97.3%
IC50 (NFkB; [3]): 0.00122 µM
IC50 (NFkB; [2]): 0.0194 µM
TR % (NFkB; comparison table): 98%

C[C@@H]1C[C@H]2[C@@H]3CCC4=CC(=O)C=C[C@]4(C)[C@@]3(F)[C@@H](O)C[C@]2(C)[C@@]1(O)C(=O)NCCCOc1ccc(C(=O)O)cc1 [Compound 19]
Emax [1]: 0.84%
EC50 [1]: 406 µM
Emax (NFkB): 33.3%
IC50 (NFkB; [2]): 1.45 µM

COc1ccc(OCCCNC(=O)[C@@]2(O)[C@H](C)C[C@H]3[C@@H]4CCC5=CC(=O)C=C[C@]5(C)[C@@]4(F)[C@@H](O)C[C@@]32C)cc1OC [Compound 16]
Emax [1]: 21.2%
EC50 [1]: 0.881 µM
Emax (NFkB): 87.2%
IC50 (NFkB; [2]): 0.0267 µM

C[C@@H]1C[C@H]2[C@@H]3CCC4=CC(=O)C=C[C@]4(C)[C@@]3(F)[C@@H](O)C[C@]2(C)[C@@]1(O)c1csc(NC(=O)c2cccnc2)n1 [Compound 32]
Emax [1]: 0.03%
EC50 [1]: 2.23 µM
Emax (NFkB): 28.5%
IC50 (NFkB; [2]): 0.0552 µM

COc1ccc(CNc2nc([C@@]3(O)[C@H](C)C[C@H]4[C@@H]5CCC6=CC(=O)C=C[C@]6(C)[C@@]5(F)[C@@H](O)C[C@@]43C)cs2)cc1 [Compound 42]
Emax [1]: 0.56%
EC50 [1]: 0.392 µM
Emax (NFkB): 51.1%
IC50 (NFkB; [2]): 0.199 µM

C[C@@H]1C[C@H]2[C@@H]3CCC4=CC(=O)C=C[C@]4(C)[C@@]3(F)[C@@H](O)C[C@]2(C)[C@@]1(O)c1csc(N(C)C(=O)c2ccc(F)cc2)n1 [Compound 43]
Emax [1]: 1.63%
EC50 [1]: 86.2 µM
Emax (NFkB): 61%
IC50 (NFkB; [2]): 0.155 µM

CCOc1ccc(C(=O)Nc2nc([C@@]3(O)[C@H](C)C[C@H]4[C@@H]5CCC6=CC(=O)C=C[C@]6(C)[C@@]5(F)[C@@H](O)C[C@@]43C)cs2)cc1 [Compound 46]
Emax [1]: 9.95%
EC50 [1]: 6.65 µM
Emax (NFkB): 55.1%
IC50 (NFkB; [2]): 0.027 µM

C[C@@H]1C[C@H]2[C@@H]3CCC4=CC(=O)C=C[C@]4(C)[C@@]3(F)[C@@H](O)C[C@]2(C)[C@@]1(O)c1csc(NC(=O)c2ccc(F)nc2)n1 [Compound 47]
Emax [1]: 7.41%
EC50 [1]: 0.669 µM
Emax (NFkB): 48%
IC50 (NFkB; [2]): 0.0229 µM

C[C@@H]1C[C@H]2[C@@H]3CCC4=CC(=O)C=C[C@]4(C)[C@@]3(F)[C@@H](O)C[C@]2(C)[C@@]1(O)C(=O)NCCCc1ccccn1 [Compound 2]
Emax [1]: 18.3%
EC50 [1]: 1.18 µM
Emax (NFkB): 52.4%
IC50 (NFkB; [2]): 0.0235 µM

C[C@@H]1C[C@H]2[C@@H]3CCC4=CC(=O)C=C[C@]4(C)[C@@]3(F)[C@@H](O)C[C@]2(C)[C@@]1(O)c1csc(NC(=O)c2cccc(F)c2)n1 [Compound 26]
Emax [1]: 3.9%
EC50 [1]: 1.53 µM
Emax (NFkB): 44.1%
IC50 (NFkB; [2]): 0.00822 µM

C[C@@H]1C[C@H]2[C@@H]3CCC4=CC(=O)C=C[C@]4(C)[C@@]3(F)[C@@H](O)C[C@]2(C)[C@@]1(O)c1csc(NC(=O)c2cscn2)n1 [Compound 36]
Emax [1]: 1.19%
EC50 [1]: 5.52 µM
Emax (NFkB): 33.6%
IC50 (NFkB; [2]): 0.0106 µM

COc1ccc(OCCCCNC(=O)[C@@]2(O)[C@H](C)C[C@H]3[C@@H]4CCC5=CC(=O)C=C[C@]5(C)[C@@]4(F)[C@@H](O)C[C@@]32C)cc1 [Compound 18]
Emax [1]: 26.3%
TA % [1]: 26%
EC50 [1]: 0.669 µM
Emax (NFkB): 82.1%
IC50 (NFkB; [3]): 0.00596 µM
IC50 (NFkB; [2]): 0.00683 µM
TR % (NFkB; comparison table): 84%

C[C@@H]1C[C@H]2[C@@H]3CCC4=CC(=O)C=C[C@]4(C)[C@@]3(F)[C@@H](O)C[C@]2(C)[C@@]1(O)C(=O)NCCOc1ccncc1 [Compound 12]
Emax [1]: 23.8%
EC50 [1]: 0.719 µM
Emax (NFkB): 91.1%
IC50 (NFkB; [2]): 0.0407 µM

C[C@@H]1C[C@H]2[C@@H]3CCC4=CC(=O)C=C[C@]4(C)[C@@]3(F)[C@@H](O)C[C@]2(C)[C@@]1(O)c1csc(NC(=O)CCc2ccc(F)cc2)n1 [Compound 38]
Emax [1]: 2.48%
EC50 [1]: 24.4 µM
Emax (NFkB): 65.5%
IC50 (NFkB; [2]): 0.0312 µM

C[C@@H]1C[C@H]2[C@@H]3CCC4=CC(=O)C=C[C@]4(C)[C@@]3(F)[C@@H](O)C[C@]2(C)[C@@]1(O)c1csc(NC(=O)c2ccccn2)n1 [Compound 40]
Emax [1]: 1.34%
EC50 [1]: 16.9 µM
Emax (NFkB): 19%
IC50 (NFkB; [2]): 0.00834 µM

C[C@@H]1C[C@H]2[C@@H]3CCC4=CC(=O)C=C[C@]4(C)[C@@]3(F)[C@@H](O)C[C@]2(C)[C@@]1(O)C(=O)CO [Dex, dexamethasone, reference compound]
TA % [1]: 100%
IC50 (NFkB; [3]): 0.00286 µM
TR % (NFkB; comparison table): 100%

C[C@@H]1C[C@H]2[C@@H]3CCC4=CC(=O)C=C[C@]4(C)[C@@]3(F)[C@@H](O)C[C@]2(C)[C@@]1(O)c1csc(NC(=O)c2ccncc2)n1 [Compound 31]
Emax [1]: 0%
Emax (NFkB): 37.5%
IC50 (NFkB; [2]): 0.0112 µM

C[C@@H]1C[C@H]2[C@@H]3CCC4=CC(=O)C=C[C@]4(C)[C@@]3(F)[C@@H](O)C[C@]2(C)[C@@]1(O)c1csc(NC(=O)Cc2ccc(F)cc2)n1 [Compound 24]
Emax [1]: 2.63%
EC50 [1]: 7.69 µM
Emax (NFkB): 79%
IC50 (NFkB; [2]): 0.00596 µM

C[C@@H]1C[C@H]2[C@@H]3CCC4=CC(=O)C=C[C@]4(C)[C@@]3(F)[C@@H](O)C[C@]2(C)[C@@]1(O)c1csc(NC(=O)c2cncs2)n1 [Compound 35]
Emax [1]: 0.23%
EC50 [1]: 4.18 µM
Emax (NFkB): 35.9%
IC50 (NFkB; [2]): 0.0448 µM

C[C@@H]1C[C@H]2[C@@H]3CCC4=CC(=O)C=C[C@]4(C)[C@@]3(F)[C@@H](O)C[C@]2(C)[C@@]1(O)c1csc(NC(=O)c2ccccc2F)n1 [Compound 28]
Emax [1]: 0%
EC50 [1]: 29.4 µM
Emax (NFkB): 36%
IC50 (NFkB; [2]): 0.12 µM

C[C@@H]1C[C@H]2[C@@H]3CCC4=CC(=O)C=C[C@]4(C)[C@@]3(F)[C@@H](O)C[C@]2(C)[C@@]1(O)C(=O)NCCCc1ccc(F)cc1 [Compound 1]
Emax [1]: 21.3%
EC50 [1]: 0.868 µM
Emax (NFkB): 90.8%
IC50 (NFkB; [2]): 0.00841 µM

C[C@@H]1C[C@H]2[C@@H]3CCC4=CC(=O)C=C[C@]4(C)[C@@]3(F)[C@@H](O)C[C@]2(C)[C@@]1(O)c1csc(NC(=O)c2ccc(F)c(F)c2)n1 [Compound 44]
Emax [1]: 14.6%
EC50 [1]: 0.914 µM
Emax (NFkB): 41.8%
IC50 (NFkB; [2]): 0.0286 µM
